The values below come from US20230416232A1, “PYRIMIDINE COMPOUNDS, COMPOSITIONS, AND MEDICINAL APPLICATIONS THEREOF” (Blueprint Medicines Corporation, priority 2020, published 2023).

What all share (format): cell-based
In experiment [1] the target is EGFR (A767_dupASV) expressing Ba/F3 stable cell line (Homo sapiens, UniProt P00533, DUP767-769, cells depend on it). Put plainly: Cellular proliferation (Alamar Blue) assay, EGFR (A767_dupASV) Ba/F3. To be noted: 72 hr, read-out: A767 IC50. The procedure, abridged:
(§1)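 Engineered Ba/F3 lines in RPMI with 10% FBS and A431 cells in DMEM with 10% FBS are plated overnight, exposed to compound dilutions (10-0.0005 μM final) for 72 hours, and then scored by a 3-hour Alamar Blue incubation.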

Experiment [2] addresses HER2 (A775_G776insYVMA) expressing Ba/F3 stable cell line (Homo sapiens, UniProt P04626, DUP772-775, cells depend on it). Put plainly: Cellular proliferation (Alamar Blue) assay, HER2 (A775_G776insYVMA) Ba/F3. To be noted: HER2 (A775_G776insYVMA) Ba/F3 cells; 72 hr; Alamar Blue; read-out: YVMA IC50. The procedure, abridged: as §1
A further experiment concerns A431 cells. Put plainly: Cellular proliferation (Alamar Blue) assay, A431 cells. To be noted: Homo sapiens, A-431, 72 h, A431 cells; 72 hr; Alamar Blue; read-out: A431 IC50. In outline: as §1
Experiment [3] addresses EGFR(D770_N771insSVD) expressing Ba/F3 stable cell line (Homo sapiens, UniProt P00533, DUP768-770, cells depend on it). Put plainly: Cellular proliferation (Alamar Blue) assay, EGFR(D770_N771insSVD) Ba/F3. The settings on record: 72 hr, read-out: D770 IC50. The procedure, abridged:
as §1

Chain of EGFR(D770_N771insSVD) expressing Ba/F3 stable cell line (P00533 with tags, fused parts or gaps DUP768-770): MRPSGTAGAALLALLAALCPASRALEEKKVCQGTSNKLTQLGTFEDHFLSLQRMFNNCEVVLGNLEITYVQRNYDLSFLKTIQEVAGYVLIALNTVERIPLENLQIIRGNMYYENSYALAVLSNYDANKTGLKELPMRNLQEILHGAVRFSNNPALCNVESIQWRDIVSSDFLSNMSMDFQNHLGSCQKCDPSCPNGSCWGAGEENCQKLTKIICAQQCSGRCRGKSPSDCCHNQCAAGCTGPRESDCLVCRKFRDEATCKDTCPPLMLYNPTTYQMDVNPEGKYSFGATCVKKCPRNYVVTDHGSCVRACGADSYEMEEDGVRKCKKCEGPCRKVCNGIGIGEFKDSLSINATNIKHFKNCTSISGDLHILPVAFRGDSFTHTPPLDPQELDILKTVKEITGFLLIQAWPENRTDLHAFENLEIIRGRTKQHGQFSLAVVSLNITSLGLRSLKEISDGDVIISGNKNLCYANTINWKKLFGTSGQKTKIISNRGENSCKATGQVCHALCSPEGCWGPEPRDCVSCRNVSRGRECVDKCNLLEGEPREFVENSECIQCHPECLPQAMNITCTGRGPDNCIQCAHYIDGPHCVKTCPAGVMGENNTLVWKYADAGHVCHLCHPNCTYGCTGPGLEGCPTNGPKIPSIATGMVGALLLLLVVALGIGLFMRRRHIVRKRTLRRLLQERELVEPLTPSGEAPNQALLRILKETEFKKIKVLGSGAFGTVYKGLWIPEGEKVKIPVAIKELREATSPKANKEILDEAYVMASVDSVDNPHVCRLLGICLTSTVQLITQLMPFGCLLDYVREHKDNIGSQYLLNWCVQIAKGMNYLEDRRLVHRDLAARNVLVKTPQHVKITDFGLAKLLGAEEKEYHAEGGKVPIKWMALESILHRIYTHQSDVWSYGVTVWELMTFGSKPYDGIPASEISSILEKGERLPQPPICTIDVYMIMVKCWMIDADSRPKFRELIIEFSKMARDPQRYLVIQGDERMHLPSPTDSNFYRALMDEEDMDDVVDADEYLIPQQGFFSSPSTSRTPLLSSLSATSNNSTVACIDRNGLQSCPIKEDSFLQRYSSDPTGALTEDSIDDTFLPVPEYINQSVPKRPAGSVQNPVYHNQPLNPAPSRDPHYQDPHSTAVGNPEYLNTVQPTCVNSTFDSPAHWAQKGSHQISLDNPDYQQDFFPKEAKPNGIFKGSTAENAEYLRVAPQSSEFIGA
Chain of HER2 (A775_G776insYVMA) expressing Ba/F3 stable cell line (P04626 with tags, fused parts or gaps DUP772-775): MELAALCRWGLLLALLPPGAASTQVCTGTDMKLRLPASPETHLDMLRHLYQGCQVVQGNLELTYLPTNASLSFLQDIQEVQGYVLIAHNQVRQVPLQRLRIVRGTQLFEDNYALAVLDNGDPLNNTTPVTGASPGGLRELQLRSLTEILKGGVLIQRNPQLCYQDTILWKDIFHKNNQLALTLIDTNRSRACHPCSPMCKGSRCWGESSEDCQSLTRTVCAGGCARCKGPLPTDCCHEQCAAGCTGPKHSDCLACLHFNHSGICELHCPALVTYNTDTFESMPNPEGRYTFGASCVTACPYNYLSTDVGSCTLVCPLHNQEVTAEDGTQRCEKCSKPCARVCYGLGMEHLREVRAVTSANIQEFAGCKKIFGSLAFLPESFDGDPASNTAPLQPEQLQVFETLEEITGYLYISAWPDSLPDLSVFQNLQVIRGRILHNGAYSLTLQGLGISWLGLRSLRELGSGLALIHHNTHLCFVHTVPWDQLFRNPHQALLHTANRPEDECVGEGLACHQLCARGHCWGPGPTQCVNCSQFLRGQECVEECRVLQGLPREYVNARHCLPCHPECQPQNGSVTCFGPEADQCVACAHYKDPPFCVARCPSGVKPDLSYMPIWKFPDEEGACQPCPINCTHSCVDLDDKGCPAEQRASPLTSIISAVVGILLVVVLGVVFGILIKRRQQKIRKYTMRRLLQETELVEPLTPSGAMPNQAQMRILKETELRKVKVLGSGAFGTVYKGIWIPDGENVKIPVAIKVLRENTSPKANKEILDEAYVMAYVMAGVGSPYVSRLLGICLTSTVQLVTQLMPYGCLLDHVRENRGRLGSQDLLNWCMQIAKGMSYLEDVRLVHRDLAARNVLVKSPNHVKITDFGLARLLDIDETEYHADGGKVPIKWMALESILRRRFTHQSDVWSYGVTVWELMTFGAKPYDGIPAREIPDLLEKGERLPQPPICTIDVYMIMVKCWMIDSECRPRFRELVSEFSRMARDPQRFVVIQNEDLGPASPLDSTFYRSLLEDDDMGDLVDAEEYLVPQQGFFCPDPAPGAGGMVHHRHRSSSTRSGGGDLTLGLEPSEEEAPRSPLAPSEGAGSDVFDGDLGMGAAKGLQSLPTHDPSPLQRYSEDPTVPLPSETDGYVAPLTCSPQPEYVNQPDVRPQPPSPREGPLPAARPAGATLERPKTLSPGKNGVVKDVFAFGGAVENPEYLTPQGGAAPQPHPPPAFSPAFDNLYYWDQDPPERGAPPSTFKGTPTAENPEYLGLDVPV
Chain of EGFR (A767_dupASV) expressing Ba/F3 stable cell line (P00533 with tags, fused parts or gaps DUP767-769): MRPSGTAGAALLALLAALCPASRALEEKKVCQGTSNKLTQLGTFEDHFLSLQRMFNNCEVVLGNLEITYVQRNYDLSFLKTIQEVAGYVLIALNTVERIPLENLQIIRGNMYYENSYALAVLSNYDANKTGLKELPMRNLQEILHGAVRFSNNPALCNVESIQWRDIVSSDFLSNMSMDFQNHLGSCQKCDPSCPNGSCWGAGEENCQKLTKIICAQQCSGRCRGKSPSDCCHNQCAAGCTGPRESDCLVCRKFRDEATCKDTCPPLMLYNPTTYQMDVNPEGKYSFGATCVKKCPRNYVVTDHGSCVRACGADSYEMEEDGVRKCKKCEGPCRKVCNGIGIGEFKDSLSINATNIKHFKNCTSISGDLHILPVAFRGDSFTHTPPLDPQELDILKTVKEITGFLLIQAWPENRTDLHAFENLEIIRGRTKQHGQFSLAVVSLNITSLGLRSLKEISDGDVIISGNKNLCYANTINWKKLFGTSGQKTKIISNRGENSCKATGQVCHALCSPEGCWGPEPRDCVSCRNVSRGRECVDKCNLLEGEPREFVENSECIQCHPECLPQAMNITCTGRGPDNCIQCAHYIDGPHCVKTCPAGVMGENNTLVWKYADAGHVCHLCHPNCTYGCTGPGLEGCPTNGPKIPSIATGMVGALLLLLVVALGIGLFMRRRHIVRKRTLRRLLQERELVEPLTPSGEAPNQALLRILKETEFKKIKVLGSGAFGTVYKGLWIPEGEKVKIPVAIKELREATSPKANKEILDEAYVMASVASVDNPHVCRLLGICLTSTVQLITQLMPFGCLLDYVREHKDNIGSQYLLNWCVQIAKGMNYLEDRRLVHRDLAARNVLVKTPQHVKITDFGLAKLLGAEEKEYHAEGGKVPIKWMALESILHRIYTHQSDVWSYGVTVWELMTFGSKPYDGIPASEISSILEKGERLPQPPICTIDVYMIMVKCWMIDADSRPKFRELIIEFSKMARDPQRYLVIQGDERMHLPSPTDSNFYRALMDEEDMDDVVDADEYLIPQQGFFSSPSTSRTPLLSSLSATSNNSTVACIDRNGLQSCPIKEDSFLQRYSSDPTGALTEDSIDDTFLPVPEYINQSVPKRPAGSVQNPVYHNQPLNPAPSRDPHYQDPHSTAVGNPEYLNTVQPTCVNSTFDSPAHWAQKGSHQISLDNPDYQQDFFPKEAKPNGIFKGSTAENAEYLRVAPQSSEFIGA

On to `C=CC(=O)Nc1cc(Br)cc(Nc2nc(Nc3cnn(C)c3)ncc2-c2ccc(OC(F)F)c(F)c2)c1` [Compound 132, N-(3-bromo-5-((5-(4-(difluoromethoxy)-3-fluorophenyl)-2-((1-methyl-1H-pyrazol-4-yl)amino)pyrimidin-4-yl)amino)phenyl)acrylamide], for which the results for the GI50 in experiment [1], in experiment [2] and in experiment [3] were 40 nM, 345 nM and 34 nM, respectively. Besides, the IC50 in the experiment with A431 cells is 51 nM.
The corresponding values for `C=CC(=O)Nc1ccc(F)c(Nc2nc(Nc3cnn(C)c3)ncc2-c2cc(F)c(C(F)(F)F)c(OC)c2)c1` [Compound 133, N-(4-fluoro-3-((5-(3-fluoro-5-methoxy-4-(trifluoromethyl)phenyl)-2-((1-methyl-1H-pyrazol-4-yl)amino)pyrimidin-4-yl)amino)phenyl)acrylamide] are 322 nM, 1270 nM, 251 nM and 394 nM.
For `C=CC(=O)Nc1ccc(F)c(Nc2nc(Nc3cnn(C)c3)ncc2-c2cc(F)c(F)c(C(F)F)c2)c1` [Compound 141, N-(3-((5-(3-(difluoromethyl)-4,5-difluorophenyl)-2-((1-methyl-1H-pyrazol-4-yl)amino)pyrimidin-4-yl)amino)-4-fluorophenyl)acrylamide] the same measures were 25 nM, 167 nM, 16 nM and 13 nM.
The corresponding values for `C=CC(=O)Nc1ccc(F)c(Nc2nc(Nc3cnn(C)c3)ncc2-c2cc(F)c(F)c(F)c2)c1` [Compound 149, N-(4-fluoro-3-((2-((1-methyl-1H-pyrazol-4-yl)amino)-5-(3,4,5-trifluorophenyl)pyrimidin-4-yl)amino)phenyl)acrylamide] are 34 nM, 92 nM, 11 nM and 11 nM.
In the case of `CN(C)C/C=C/C(=O)Nc1cccc(Nc2nc(Nc3cnn(C)c3)ncc2-c2cc(F)cc(F)c2)c1` [Compound 150, (E)-N-(3-((5-(3,5-difluorophenyl)-2-((1-methyl-1H-pyrazol-4-yl)amino)pyrimidin-4-yl)amino)phenyl)-4-(dimethylamino)but-2-enamide], the GI50 in experiment [1] came out at 110 nM; in experiment [2], 237 nM; in experiment [3] it was 126 nM. Moreover, the half-inhibitory concentration (IC50) with A431 cells amounted to 214 nM.
For the molecule `C=CC(=O)Nc1cccc(Nc2nc(Nc3cnn(C)c3)ncc2-c2cc(F)c(Br)c(F)c2)c1` [Compound 152, N-(3-((5-(4-bromo-3,5-difluorophenyl)-2-((1-methyl-1H-pyrazol-4-yl)amino)pyrimidin-4-yl)amino)phenyl)acrylamide], the GI50 is 34 nM in experiment [1], 40 nM in experiment [2] and 11 nM in experiment [3]. In addition, in the experiment on A431 cells, the IC50 worked out at 8 nM.
For `C=CC(=O)Nc1cccc(Nc2nc(Nc3cnn(C)c3)ncc2-c2cc(F)c(C(F)(F)F)c(F)c2)c1` [Compound 153, N-(3-((5-(3,5-difluoro-4-(trifluoromethyl)phenyl)-2-((1-methyl-1H-pyrazol-4-yl)amino)pyrimidin-4-yl)amino)phenyl)acrylamide] the same measures were 34 nM, 98 nM, 13 nM and 1080 nM.
Turning to `C=CC(=O)Nc1cccc(Nc2nc(Nc3cnn(C)c3)ncc2-c2cc(F)c(Br)c(Cl)c2)c1` [Compound 154, N-(3-((5-(4-bromo-3-chloro-5-fluorophenyl)-2-((1-methyl-1H-pyrazol-4-yl)amino)pyrimidin-4-yl)amino)phenyl)acrylamide], the GI50 in experiment [1] came out at 81 nM; in experiment [2], 154 nM; in experiment [3], 34 nM. In addition, the IC50 in the experiment on A431 cells worked out at 1760 nM.
